In brackets after ≈: the same amount, converted by molar mass.
Assays:
[1] = Permeability by PAMPA; assay type: ADME; conditions: read-out: permeability
[2] = Aqueous solubility of compound; assay type: physicochemical; conditions: buffer
[3] = Cmax in NZBWF1/J mouse at 25 mg/kg, po; assay type: ADME, organism-based; design: dose 25 mg/kg, route oral; conditions: in vivo
[4] = AUC in NZBWF1/J mouse at 25 mg/kg, po; assay type: ADME, organism-based; design: dose 25 mg/kg, route oral; conditions: plasma
Mus musculus = assay: Cavg in NZBWF1/J mouse at 25 mg/kg, po; assay type: ADME, organism-based; design: dose 25 mg/kg, route oral; conditions: in vivo

A Papp [1] of 0.39 ×10⁻⁶ cm/s, a solubility [2] of 61 µg/mL (≈ 132 µM) and a Cmax [3] of 2200 nM were found for `Cc1c(Nc2c(C#N)cncc2/C=C/c2cccc(CN3CCN(C)CC3)n2)ccc2[nH]ccc12` in this work. The AUC [4] was 17.8 µM·h and the Drug uptake (Mus musculus) was 740 nM.

Reference: ChEMBL document CHEMBL1155381, “Optimization of 5-vinylaryl-3-pyridinecarbonitriles as PKCtheta inhibitors” (Bioorg Med Chem Lett, 2010)
